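Abbreviation: GI50, concentration required for 50% inhibition of growth. TGI: concentration producing complete growth inhibition.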
Tests used:
Test in all cases: NCI tumour cell line growth inhibition, 384-well format
[1] = system: DU-145 prostate
[2] = system: CCRF-CEM leukemia
[3] = system: SK-MEL-28 melanoma
[4] = system: RPMI-8226 leukemia
[5] = system: HL-60(TB) leukemia
[6] = system: OVCAR-3 ovarian
[7] = system: HS 578T breast
[8] = system: OVCAR-8 ovarian
[9] = system: OVCAR-5 ovarian
[10] = system: M14 melanoma
[11] = system: U251 glioblastoma
[12] = system: A498 renal
[13] = system: SF-295 CNS
[14] = system: NCI-H226 lung
[15] = system: NCI-H23 lung
[16] = system: ACHN renal
[17] = system: UACC-257 melanoma
[18] = system: SK-OV-3 ovarian
[19] = system: NCI-H522 lung
[20] = system: SNB-19 CNS
[21] = system: UO-31 renal
[22] = system: TK-10 renal
[23] = system: NCI-H460 NSCLC
[24] = system: SF-268 CNS
[25] = system: MALME-3M melanoma
[26] = system: HCT-15 colon
[27] = system: NCI-H322M lung
[28] = system: 786-0 renal
[29] = system: NCI/ADR-RES ovarian
[30] = system: OVCAR-4 ovarian
[31] = system: IGROV1 ovarian
[32] = system: EKVX NSCLC
[33] = system: RXF 393 renal
[34] = system: MDA-MB-468 breast
[35] = system: UACC-62 melanoma
[36] = system: MOLT-4 leukemia
[37] = system: K-562 leukemia
[38] = system: SK-MEL-5 melanoma
[39] = system: PC-3 prostate
[40] = system: LOX IMVI melanoma
[41] = system: SNB-75 CNS
[42] = system: BT-549 breast
[43] = system: SN12C renal
[44] = system: HOP-92 NSCLC
[45] = system: SF-539 CNS
[46] = system: MDA-MB-435 melanoma
[47] = system: KM12 colon
[48] = system: SR leukemia
[49] = system: MDA-MB-231 breast
[50] = system: HT29 colon
[51] = system: A549 NSCLC
[52] = system: T-47D breast
[53] = system: HOP-62 NSCLC
[54] = system: HCC-2998 colon
[55] = system: COLO 205 colon
[56] = system: HCT-116 colon
[57] = system: CAKI-1 renal
[58] = system: SW-620 colon
[59] = system: MCF7 breast
[60] = system: SK-MEL-2 melanoma

Compound `Cc1c(C(=O)Nc2ccc(Oc3ccnc4cc(OCC(C)(C)O)ccc34)c(F)c2)c(=O)n(-c2ccccc2)n1C` has a GI50 [1] of 6.27 µM, a TGI [1] of over 100 µM and a GI50 [2] of 2.61 µM. The TGI [2] was 7.97 µM, the GI50 [3] was 3.58 µM and the TGI [3] was over 30.3 µM. For the same compound, the GI50 [4] was 3.03 µM, the TGI [4] was 7.45 µM and the GI50 [5] was 3.5 µM. The TGI [5] was 6.78 µM, the GI50 [6] was 4.83 µM and the TGI [6] was over 100 µM. For the same compound, the GI50 [7] was 1.86 µM, the TGI [7] was 4.85 µM and the GI50 [8] was 3.69 µM. The TGI [8] was over 88.7 µM, the GI50 [9] was 3.04 µM and the TGI [9] was over 100 µM. The GI50 [10] was 2.68 µM, the TGI [10] was over 22.7 µM and the GI50 [11] was 4.93 µM. The TGI [11] was over 100 µM, the GI50 [12] was 3.58 µM and the TGI [12] was over 37.7 µM. It also gave a GI50 [13] of 1.37 µM, a TGI [13] of over 23.6 µM and a GI50 [14] of 1.93 µM. It also gave a TGI [14] of 7.08 µM, a GI50 [15] of 1.52 µM and a TGI [15] of 7.35 µM. For the same compound, the GI50 [16] was 3.39 µM, the TGI [16] was over 100 µM and the GI50 [17] was 3.24 µM. It also gave a TGI [17] of 22 µM, a GI50 [18] of 3.51 µM and a TGI [18] of over 50.8 µM. The GI50 [19] was 3.74 µM, the TGI [19] was over 36.9 µM and the GI50 [20] was 4.78 µM. It also gave a TGI [20] of over 100 µM, a GI50 [21] of 4.31 µM and a TGI [21] of over 100 µM. It also gave a GI50 [22] of 5.2 µM, a TGI [22] of over 100 µM and a GI50 [23] of 2.62 µM. For the same compound, the TGI [23] was 6.33 µM, the GI50 [24] was 3.23 µM and the TGI [24] was over 19.7 µM. For the same compound, the GI50 [25] was 2.11 µM, the TGI [25] was 5.14 µM and the GI50 [26] was 4.13 µM. It also gave a TGI [26] of over 69.6 µM, a GI50 [27] of 3.34 µM and a TGI [27] of 21.8 µM. For the same compound, the GI50 [28] was 5.8 µM, the TGI [28] was 96.9 µM and the GI50 [29] was 4.13 µM. It also gave a TGI [29] of over 44.1 µM, a GI50 [30] of 4.8 µM and a TGI [30] of over 100 µM. The GI50 [31] was 4.3 µM, the TGI [31] was over 100 µM and the GI50 [32] was 2.61 µM. For the same compound, the TGI [32] was 8.53 µM, the GI50 [33] was 1.66 µM and the TGI [33] was 4.11 µM. The GI50 [34] was 1.62 µM, the TGI [34] was 4.86 µM and the GI50 [35] was 1.41 µM. For the same compound, the TGI [35] was 4.21 µM, the GI50 [36] was 1.46 µM and the TGI [36] was 3.66 µM. For the same compound, the GI50 [37] was 0.152 µM, the TGI [37] was 0.391 µM and the GI50 [38] was 1.89 µM. The TGI [38] was 4.77 µM, the GI50 [39] was 3.76 µM and the TGI [39] was over 100 µM. For the same compound, the GI50 [40] was 2.65 µM, the TGI [40] was over 44 µM and the GI50 [41] was 2.68 µM. For the same compound, the TGI [41] was over 28.1 µM, the GI50 [42] was over 23.7 µM and the TGI [42] was over 65.3 µM. For the same compound, the GI50 [43] was 0.484 µM, the TGI [43] was 4.82 µM and the GI50 [44] was 2.36 µM. It also gave a TGI [44] of over 25.8 µM, a GI50 [45] of 3.68 µM and a TGI [45] of over 100 µM. For the same compound, the GI50 [46] was 3.31 µM, the TGI [46] was over 31.4 µM and the GI50 [47] was 0.258 µM. It also gave a TGI [47] of over 100 µM, a GI50 [48] of 2 µM and a TGI [48] of 3.82 µM. The GI50 [49] was 3.26 µM, the TGI [49] was over 30.4 µM and the GI50 [50] was 2.55 µM. The TGI [50] was over 100 µM, the GI50 [51] was 4.26 µM and the TGI [51] was over 100 µM. The GI50 [52] was 1.57 µM, the TGI [52] was 4.72 µM and the GI50 [53] was 2.34 µM. The TGI [53] was over 22.5 µM, the GI50 [54] was over 31.1 µM and the TGI [54] was over 100 µM. The GI50 [55] was 2.26 µM, the TGI [55] was 6.93 µM and the GI50 [56] was 3.97 µM. It also gave a TGI [56] of over 100 µM, a GI50 [57] of 0.963 µM and a TGI [57] of over 39 µM. For the same compound, the GI50 [58] was 4.53 µM, the TGI [58] was over 100 µM and the GI50 [59] was 3.5 µM. It also gave a TGI [59] of over 38.9 µM.

In the case of `CC(=O)OC1C(C)OC(Oc2c(-c3ccc(O)cc3)oc3cc(O)cc(O)c3c2=O)C(O)C1OC(C)=O` (stereo not drawn), the GI50 [1] is reported as 27.6 µM, the TGI [1] is reported as 77.1 µM and the GI50 [2] is reported as 20.2 µM. For the same compound, the TGI [2] was 37.6 µM, the GI50 [3] was 32.2 µM and the TGI [3] was over 100 µM. For the same compound, the GI50 [4] was 15.1 µM, the TGI [4] was 30.8 µM and the GI50 [5] was 17.5 µM. It also gave a TGI [5] of 31.5 µM, a GI50 [6] of 23.3 µM and a TGI [6] of 57.7 µM. It also gave a GI50 [7] of 21.5 µM, a TGI [7] of 62.4 µM and a GI50 [8] of 31.4 µM. The TGI [8] was over 100 µM, the GI50 [9] was over 100 µM and the TGI [9] was over 100 µM. It also gave a GI50 [10] of 39.8 µM, a TGI [10] of over 100 µM and a GI50 [11] of 46.4 µM. It also gave a TGI [11] of over 100 µM, a GI50 [12] of 92.1 µM and a TGI [12] of over 100 µM. For the same compound, the GI50 [13] was 33.9 µM, the TGI [13] was over 100 µM and the GI50 [14] was 34.2 µM. The TGI [14] was over 100 µM, the GI50 [15] was 28.8 µM and the TGI [15] was 82.3 µM. It also gave a GI50 [16] of 74.5 µM, a TGI [16] of over 100 µM and a GI50 [17] of 43.5 µM. For the same compound, the TGI [17] was over 100 µM, the GI50 [18] was 46.3 µM and the TGI [18] was over 100 µM. For the same compound, the GI50 [19] was 20.5 µM, the TGI [19] was 46.2 µM and the GI50 [20] was 50.4 µM. For the same compound, the TGI [20] was over 100 µM, the GI50 [21] was over 100 µM and the TGI [21] was over 100 µM. It also gave a GI50 [22] of over 100 µM, a TGI [22] of over 100 µM and a GI50 [23] of 39.5 µM. For the same compound, the TGI [23] was over 100 µM, the GI50 [24] was 28.8 µM and the TGI [24] was 92.7 µM. For the same compound, the GI50 [25] was 20.2 µM, the TGI [25] was 49.8 µM and the GI50 [26] was 87.7 µM. For the same compound, the TGI [26] was over 100 µM, the GI50 [27] was 46.9 µM and the TGI [27] was over 100 µM. It also gave a GI50 [28] of 62 µM, a TGI [28] of over 100 µM and a GI50 [60] of 30 µM. The TGI [60] was 73.8 µM, the GI50 [29] was over 100 µM and the TGI [29] was over 100 µM. The GI50 [30] was 36.4 µM, the TGI [30] was over 100 µM and the GI50 [31] was 44.7 µM. The TGI [31] was over 100 µM, the GI50 [32] was 83.8 µM and the TGI [32] was over 100 µM. The GI50 [33] was 23 µM, the TGI [33] was 65.9 µM and the GI50 [34] was 19.6 µM. For the same compound, the TGI [34] was 38.7 µM, the GI50 [35] was 23.1 µM and the TGI [35] was 63.6 µM. It also gave a GI50 [36] of 17.4 µM, a TGI [36] of 31.9 µM and a GI50 [37] of 34.4 µM. It also gave a TGI [37] of over 100 µM, a GI50 [38] of 32.5 µM and a TGI [38] of over 100 µM. For the same compound, the GI50 [39] was 38.9 µM, the TGI [39] was over 100 µM and the GI50 [40] was 31.6 µM. It also gave a TGI [40] of over 100 µM, a GI50 [41] of 32 µM and a TGI [41] of 97 µM. The GI50 [42] was 19.4 µM, the TGI [42] was 44.7 µM and the GI50 [43] was 32.2 µM. The TGI [43] was over 100 µM, the GI50 [44] was 28.6 µM and the TGI [44] was 76.8 µM. For the same compound, the GI50 [45] was over 100 µM, the TGI [45] was over 100 µM and the GI50 [46] was 40.8 µM. The TGI [46] was over 100 µM, the GI50 [47] was 41.9 µM and the TGI [47] was over 100 µM. It also gave a GI50 [48] of 17.7 µM, a TGI [48] of 34.2 µM and a GI50 [49] of 25.7 µM. For the same compound, the TGI [49] was 74.1 µM, the GI50 [50] was 63.6 µM and the TGI [50] was over 100 µM. The GI50 [51] was over 100 µM, the TGI [51] was over 100 µM and the GI50 [52] was 19.5 µM. It also gave a TGI [52] of 47.7 µM, a GI50 [53] of 20.8 µM and a TGI [53] of 49 µM. The GI50 [54] was 38.7 µM, the TGI [54] was over 100 µM and the GI50 [55] was 93.1 µM. For the same compound, the TGI [55] was over 100 µM, the GI50 [56] was 39.2 µM and the TGI [56] was over 100 µM. The GI50 [57] was over 100 µM, the TGI [57] was over 100 µM and the GI50 [58] was 59.1 µM. The TGI [58] was over 100 µM, the GI50 [59] was 37.2 µM and the TGI [59] was over 100 µM.
